A word on the IC50: it is the midpoint of a concentration-inhibition curve. A low value points to inhibition by little substance.

Where only a bound is given, the exact number is not on record here.

The assay deals with T1, KRAS G12C (GMPPNP-loaded) and cRAF (Ras-binding domain) interaction (Homo sapiens, UniProt P01116, C118S/C51S/C80L/G12C).
T1 construct: truncated version comprising amino acids 1-169
In words: AlphaScreen inhibition of KRAS G12C and cRAF binding. The following applies: KRAS G12C preloaded with GTP analogue GMPPNP, 2 hours preincubation. The format is biochemical. The procedure: The AlphaScreen technology was used to determine IC50s for compound inhibition of KRAS G12C (present as the Cys-light (C51S, C80L and C118S), truncated version comprising amino acids 1-169) and cRAF interaction. Compounds were diluted in 100% DMSO and each compound concentration was spotted at 200 nl/well onto low volume, white 384 well plates. The KRAS G12C contained a biotin-AviTag and the cRaf, as Ras-binding domain (amino acids 50-131, RBD), was GST-tagged. KRAS G12C was preloaded with the GTP analogue Guanosine 5′-[β,γ-imido]triphosphate (GMPPNP). The KRAS G12C was diluted in 25 mM Hepes, pH 7.4, 150 mM NaCl, 5 mM MgCl2, 0.01% TritonX-100 and 10 μM GMPPNP and added at 10 ul/well to compound-spotted plates resulting in a DMSO concentration of 2%. Plates were incubated for 2 hours. A mixture of RBD and the AlphaScreen streptavidin donor and glutathione acceptor beads diluted in 25 mM Hepes, pH 7.4, 150 mM NaCl, 5 mM MgCl2, 0.01% TritonX-100 and 2% DMSO was then added at 10 ul/well and incubated for 60-90 minutes before the samples were read for emission at 570 nm after excitation of the donor beads at 680 nm. All incubations were performed at room temperature. The final top compound concentration was 50 μM with 1:3 titrations for 10-point dose response curves. Final assay conditions were 0.5 nM KRAS G12C, 0.75 nM RBD and 5 ug/ml each of AlphaScreen donor and acceptor beads. IC50s were determined using nonlinear regression fit of [inhibitor] vs. response (4 parameters).
A counter assay was also set up to rule out inhibitors of the AlphaScreen technology itself. Compound plates were incubated for 2 hours as above with buffer only. The AlphaScreen beads were added as above except biotin-AviTag-GST was substituted for the RBD. Samples were read and analyzed as above.
In general terms: In Alpha technology, singlet oxygen from a donor bead excites a nearby acceptor bead.

T1 sequence (P01116 1-169 isoform P01116-2 G12C/C51S/C80L/C118S): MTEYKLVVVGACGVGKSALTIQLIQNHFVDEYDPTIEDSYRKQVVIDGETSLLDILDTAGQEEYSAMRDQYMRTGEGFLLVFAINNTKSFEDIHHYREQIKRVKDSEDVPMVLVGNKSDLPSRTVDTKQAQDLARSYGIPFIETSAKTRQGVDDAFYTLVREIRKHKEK

The compound `C[C@@H](/C=C/C(=O)N1CCN(c2nc(OC[C@@]34CCCN3C[C@H](F)C4)nc3c(F)c(-c4cccc5cccc(Cl)c45)ncc23)C[C@@H]1CC#N)N1CCOCC1` [Compound 24] yielded an IC50 of 10 to 100 nM.
To `CC(/C=C/C(=O)N1CCN(c2nc(OC[C@@]34CCCN3C[C@H](F)C4)nc3c(F)c(-c4cccc5cccc(Cl)c45)ncc23)C[C@@H]1CC#N)N1CC[C@H](F)C1` (stereo partly shown) [Compound 28] belongs 10 to 100 nM.
To `C[C@H](/C=C/C(=O)N1CC[C@@H](N(C)c2nc(OC[C@@]34CCCN3C[C@H](F)C4)nc3c(F)c(-c4cccc5cccc(Cl)c45)ncc23)C1)N1CCC1` [Compound 12] belongs 10 to 100 nM; to `CO[C@@H]1CCN(C(C)/C=C/C(=O)N2CCN(c3nc(OC[C@@]45CCCN4C[C@H](F)C5)nc4c(F)c(-c5cccc6ccc(F)c(Cl)c56)ncc34)C[C@@H]2CC#N)C1` (stereo partly shown) [Compound 14], < 10 nM.
For `C[C@@H](/C=C/C(=O)N1CCN(c2nc(OCC34CCCN3CCC4)nc3c2CCN(c2cccc4cccc(Cl)c24)C3)C[C@@H]1CC#N)N(C)C` [Compound 5] the value was 10 to 100 nM; for `C[C@H](/C=C/C(=O)N1CCN(c2nc(OC[C@@]34CCCN3C[C@H](F)C4)nc3c(F)c(-c4cccc5cccc(Cl)c45)ncc23)C[C@@H]1CC#N)N1CC2CCC(C1)O2` [Compound 42], 100 to 500 nM; for `C[C@H](/C=C/C(=O)N1CCN(c2nc(OC[C@@]34CCCN3C[C@H](F)C4)nc3c(F)c(-c4cccc(Cl)c4C(F)(F)F)ncc23)C[C@@H]1CC#N)N(C)C` [Compound 46, 2-((S)-4-(7-(3-chloro-2-(trifluoromethyl)phenyl)-8-fluoro-2-(((2R,7aS)-2-fluorotetrahydro-1H-pyrrolizin-7a(5H)-yl)methoxy)pyrido[4,3-d]pyrimidin-4-yl)-1-((R,E)-4-(dimethylamino)pent-2-enoyl)piperazin-2-yl)acetonitrile], 10 to 100 nM.
As to `C[C@@H](/C=C/C(=O)N1CC[C@@H](N(C)c2nc(OC[C@@]34CCCN3C[C@H](F)C4)nc3c(F)c(-c4cccc5ccc(F)c(F)c45)ncc23)C1)N(C)C` [Compound 10, (S,E)-1-((R)-3-((7-(7,8-difluoronaphthalen-1-yl)-8-fluoro-2-(((2R,7aS)-2-fluorotetrahydro-1H-pyrrolizin-7a(5H)-yl)methoxy)pyrido[4,3-d]pyrimidin-4-yl)(methyl)amino)pyrrolidin-1-yl)-4-(dimethylamino)pent-2-en-1-one], the IC50 is < 10 nM.
To `CC(/C=C/C(=O)N1CCN(c2nc(OC[C@@]34CCCN3C[C@H](F)C4)nc3c(F)c(-c4cccc5cccc(Cl)c45)ncc23)C[C@@H]1CC#N)N1C[C@@H]2C[C@H]1CO2` (stereo partly shown) [Compound 15] belongs 10 to 100 nM; to `C[C@@H](/C=C/C(=O)N1C[C@H](F)[C@@H](N(C)c2nc(OC[C@@]34CCCN3C[C@H](F)C4)nc3c(F)c(-c4cccc5cccc(Cl)c45)ncc23)C1)N(C)C` [Compound 8], 10 to 100 nM; to `C[C@@H](/C=C/C(=O)N1CCN(c2nc(OC[C@@]34CCCN3C[C@H](F)C4)nc3c(F)c(-c4cccc5cccc(Cl)c45)ncc23)C[C@@H]1CC#N)N1C[C@H]2C[C@@H]1CO2` [Compound 26], 10 to 100 nM.
To `CC(/C=C/C(=O)N1CC[C@@H](N(C)c2nc(OC[C@@]34CCCN3C[C@H](F)C4)nc3c(F)c(-c4cccc(Cl)c4C4CC4)ncc23)C1)N(C)C` (stereo partly shown) [Compound 35] belongs 100 to 500 nM.
To `CC(/C=C/C(=O)N1CCN(c2nc(OC[C@@]34CCCN3C[C@H](F)C4)nc3c(F)c(-c4cccc5cccc(Cl)c45)ncc23)C[C@@H]1CC#N)N1CC2CC(C1)O2` (stereo partly shown) [Compound 34] belongs 10 to 100 nM; to `CC(/C=C/C(=O)N1CCN(c2nc(OC[C@@]34CCCN3C[C@H](F)C4)nc3c(F)c(-c4cccc5cccc(Cl)c45)ncc23)C[C@@H]1CC#N)N1CC2CCC(C1)O2` (stereo partly shown) [Compound 33], 10 to 100 nM.
For the compound `C[C@@H](/C=C/C(=O)N1CCN(c2nc(OC[C@@]34CCCN3C[C@H](F)C4)nc3c(F)c(-c4cccc5cccc(Cl)c45)ncc23)C[C@@H]1CC#N)N1CC2CCC(C1)O2` [Compound 43], the IC50 lay within 100 to 500 nM.
To `C[C@H](/C=C/C(=O)N1CCN(c2nc(OCC34CCCN3CCC4)nc3c2CCN(c2cccc4cccc(Cl)c24)C3)C[C@@H]1CC#N)N1CCOCC1` [Compound 21] belongs 10 to 100 nM; to `C#Cc1c(F)ccc2cccc(-c3ncc4c(N(C)[C@@H]5CCN(C(=O)/C=C/C(C)N(C)C)C5)nc(OC[C@@]56CCCN5C[C@H](F)C6)nc4c3F)c12` (stereo partly drawn) [Compound 32, (E)-4-(dimethylamino)-1-((R)-3-((7-(8-ethynyl-7-fluoronaphthalen-1-yl)-8-fluoro-2-(((2R,7aS)-2-fluorotetrahydro-1H-pyrrolizin-7a(5H)-yl)methoxy)pyrido[4,3-d]pyrimidin-4-yl)(methyl)amino)pyrrolidin-1-yl)pent-2-en-1-one], < 10 nM.
For `C[C@H](/C=C/C(=O)N1CC[C@@H](N(C)c2nc(OC[C@@]34CCCN3C[C@H](F)C4)nc3c(F)c(-c4cccc5cccc(Cl)c45)ncc23)C1)N(C)C` [Compound 1] the value was 100 to 500 nM; for `C[C@H](/C=C/C(=O)N1CCN(c2nc(OC[C@@]34CCCN3C[C@H](F)C4)nc3c(F)c(-c4cccc5cccc(Cl)c45)ncc23)C[C@@H]1CC#N)N1[C@@H]2CC[C@H]1COC2` [Compound 30, 2-((S)-1-((R,E)-4-((1R,5S)-3-oxa-8-azabicyclo[3.2.1]octan-8-yl)pent-2-enoyl)-4-(7-(8-chloronaphthalen-1-yl)-8-fluoro-2-(((2R,7aS)-2-fluorotetrahydro-1H-pyrrolizin-7a(5H)-yl)methoxy)pyrido[4,3-d]pyrimidin-4-yl)piperazin-2-yl)acetonitrile], 10 to 100 nM.
For `CC(/C=C/C(=O)N1CCN(c2nc(OC[C@@]34CCCN3C[C@H](F)C4)nc3c(F)c(-c4cccc5cccc(Cl)c45)ncc23)C[C@@H]1CC#N)N1C[C@H]2C[C@@H]1CO2` (stereo partly shown) [Compound 16] the value was 10 to 100 nM; for `C[C@H](/C=C/C(=O)N1CCN(c2nc(OC[C@@]34CCCN3C[C@H](F)C4)nc3c(F)c(-c4cccc5cccc(Cl)c45)ncc23)C[C@@H]1CC#N)N1CC[C@H](F)C1` [Compound 38], ≥ 500 nM; for `CO[C@H]1CCN(C(C)/C=C/C(=O)N2CCN(c3nc(OC[C@@]45CCCN4C[C@H](F)C5)nc4c(F)c(-c5cccc6ccc(F)c(Cl)c56)ncc34)C[C@@H]2CC#N)C1` (stereo partly shown) [Compound 13], < 10 nM.
As for `C[C@H](/C=C/C(=O)N1CCN(c2nc(OC[C@@]34CCCN3C[C@H](F)C4)nc3c(F)c(-c4cccc(Cl)c4C4CC4)ncc23)C[C@@H]1CC#N)N(C)C` [Compound 44, 2-((S)-4-(7-(3-chloro-2-cyclopropylphenyl)-8-fluoro-2-(((2R,7aS)-2-fluorotetrahydro-1H-pyrrolizin-7a(5H)-yl)methoxy)pyrido[4,3-d]pyrimidin-4-yl)-1-((R,E)-4-(dimethylamino)pent-2-enoyl)piperazin-2-yl)acetonitrile], the IC50 lay in the range of 10 to 100 nM.
For `C[C@@H](/C=C/C(=O)N1CCN(c2nc(OC[C@@]34CCCN3C[C@H](F)C4)nc3c(F)c(-c4cccc(Cl)c4C(F)(F)F)ncc23)C[C@@H]1CC#N)N(C)C` [Compound 47, 2-((S)-4-(7-(3-chloro-2-(trifluoromethyl)phenyl)-8-fluoro-2-(((2R,7aS)-2-fluorotetrahydro-1H-pyrrolizin-7a(5H)-yl)methoxy)pyrido[4,3-d]pyrimidin-4-yl)-1-((S,E)-4-(dimethylamino)pent-2-enoyl)piperazin-2-yl)acetonitrile] the value was ≥ 500 nM; for `C[C@H](/C=C/C(=O)N1CCN(c2nc(OC[C@@]34CCCN3C[C@H](F)C4)nc3c(F)c(-c4cccc5cccc(Cl)c45)ncc23)C[C@@H]1CC#N)N1CC2CC(C1)O2` [Compound 36], 10 to 100 nM.
As to `C[C@H](/C=C/C(=O)N1CCN(c2nc(OCC34CCCN3CCC4)nc3c2CCN(c2cccc4cccc(Cl)c24)C3)C[C@@H]1CC#N)N(C)C` [Compound 4], the IC50 is < 10 nM.
To `C[C@H](/C=C/C(=O)N1CC[C@@H](N(C)c2nc(OC[C@@]34CCCN3C[C@H](F)C4)nc3c(F)c(-c4cccc5ccc(F)c(F)c45)ncc23)C1)N(C)C` [Compound 7, (R,E)-1-((R)-3-((7-(7,8-difluoronaphthalen-1-yl)-8-fluoro-2-(((2R,7aS)-2-fluorotetrahydro-1H-pyrrolizin-7a(5H)-yl)methoxy)pyrido[4,3-d]pyrimidin-4-yl)(methyl)amino)pyrrolidin-1-yl)-4-(dimethylamino)pent-2-en-1-one] belongs 100 to 500 nM.
Consider `C[C@@H](/C=C/C(=O)N1CC[C@@H](N(C)c2nc(OC[C@@]34CCCN3C[C@H](F)C4)nc3c(F)c(-c4cccc5cccc(Cl)c45)ncc23)C1)N(C)C` [Compound 2], for which the IC50 is < 10 nM.
